What was measured:
[1] = tested on: advanced, refractory solid tumors or lymphomas; assay: Phase 1 trial of LMP744: tumor response (RECIST v1.1), cycles completed; type: in vivo, human
Experimental: Tumor responses were evaluated by serial CT scans according to RECIST v1.1 criteria. CT scans were performed every other cycle during the first year, then every 3 cycles after the first year. Toxicities associated with LMP776 were evaluated according to criteria specified in CTCAE version 4.0; toxicities associated with LMP744 were evaluated according to the criteria specified in CTCAE version 4.03 (on or before March 31, 2018) or version 5.0 (on or after April 1, 2018). Criteria for all versions can be found at https://ctep.cancer.gov/protocolDevelopment/electronic_applications/ctc.htm. Any patient who received a dose of either agent was considered eligible for toxicity evaluation.

[2] = target: T1, TOP1 (Homo sapiens, UniProt P11387); assay: qIF of paired tumor biopsies: nuclear TOP1; type: in vivo
T1 construct: paired pre-treatment and on-treatment tumor biopsies (C1D2, 2–4 h after dosing) from 6 patients receiving LMP744 at the MTD; from tissue; host or cells: core needle tumor biopsies from patients (LMP744 expansion cohort)
T1 sequence (P11387 1-765): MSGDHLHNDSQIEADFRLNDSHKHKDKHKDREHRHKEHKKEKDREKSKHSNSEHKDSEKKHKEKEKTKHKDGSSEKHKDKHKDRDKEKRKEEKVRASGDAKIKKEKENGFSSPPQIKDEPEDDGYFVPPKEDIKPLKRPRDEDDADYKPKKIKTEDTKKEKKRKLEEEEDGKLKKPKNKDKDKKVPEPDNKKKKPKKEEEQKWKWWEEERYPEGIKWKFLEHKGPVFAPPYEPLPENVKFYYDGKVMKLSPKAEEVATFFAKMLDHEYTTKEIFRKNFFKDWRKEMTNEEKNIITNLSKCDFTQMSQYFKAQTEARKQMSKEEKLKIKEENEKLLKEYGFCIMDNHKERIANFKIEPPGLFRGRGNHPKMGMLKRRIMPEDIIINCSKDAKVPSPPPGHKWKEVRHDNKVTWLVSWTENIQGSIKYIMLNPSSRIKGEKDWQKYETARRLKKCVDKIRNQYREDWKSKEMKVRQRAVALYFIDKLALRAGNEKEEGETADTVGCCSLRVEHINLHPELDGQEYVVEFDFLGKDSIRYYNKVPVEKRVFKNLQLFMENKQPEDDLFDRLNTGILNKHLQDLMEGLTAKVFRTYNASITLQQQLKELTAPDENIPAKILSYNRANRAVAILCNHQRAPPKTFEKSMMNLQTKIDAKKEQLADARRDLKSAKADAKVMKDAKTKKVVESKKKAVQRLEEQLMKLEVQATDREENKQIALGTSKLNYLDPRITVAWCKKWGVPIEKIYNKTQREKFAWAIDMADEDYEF
Source text: The LMP744 protocol collected pre-treatment (baseline) and on-treatment paired biopsies from patients in the expansion cohort. Core needle tumor biopsies (18-gauge) were collected and flash-frozen at point of collection per NCI SOPs (https://dctd.cancer.gov/ResearchResources/biomarkers/docs/par/SOP340507_Biopsy_Frozen.pdf) as described to preserve labile post-translational modifications such as phosphorylation. Biopsy pairs were thawed in formalin, fixed in paraffin embedded together with control tissues following NCI SOP340550 (https://dctd.cancer.gov/ResearchResources/biomarkers/DDR3/SOP340550_Biopsy_Section_Testis_Jejunum_Controls.pdf). TOP1 and TOP1cc were measured with a cocktail containing custom-conjugated rabbit monoclonal antibody anti-TOP1-DIG (Abcam, EPR5376 (2)) and mouse monoclonal antibody anti-TOP1cc (clone 1.1A [34, 35], EMD Millipore) that were detected with reporter secondary antibodies AlexaFluor-647 IgG fraction monoclonal mouse anti-digoxin (Jackson ImmunoResearch) and goat/anti-mouse AlexaFluor-488, respectively. Phosphorylated KAP1 (pKAP1, phosphorylated at S824) was measured using custom-conjugated pKAP1-pS824-DNP (Abcam, EPR5248) and detected with AlexaFluor-488 conjugated with anti-dinitrophenyl-KLH rabbit IgG Antibody Fraction (DNP-488, ThermoFisher). Validated immunofluorescence assays (IFAs) were used to measure levels of γH2AX, phosphorylated NBS1 (pNBS1, phosphorylated at Ser343), and RAD51 [15, 17, 19, 29]. Antibodies in all clinical immunofluorescence staining protocols were used as a cocktail with β-catenin as a tumor marker as previously described. After staining with primary antibodies, washing, and staining with secondary antibodies, slides were rinsed in 1X PBS and blotted to remove excess liquid. Slides were cured overnight with Prolong Gold Antifade Reagent (Invitrogen) in the dark and imaged the following day. Confocal images (12-bit) were acquired at 20X using a Nikon A1 scan head on a Nikon 90i microscope at 0.24 µm/pixel to measure nuclear TOP1 and nuclear foci of TOP1cc and RAD51. […] TOP1, γH2AX, pNBS1, and pKAP1 were measured as the percentage of DAPI-stained tumor cell nuclear area that was positive for the biomarker (% NAP); RAD51 [19] and TOP1cc was measured as a function of the percentage of nuclei with ≥ 5 foci (RAD51) or ≥ 19 foci (TOP1cc). Apoptosis was measured using a validated IFA of tumor cells positive for both cCasp3 blebbing in the cytoplasm and γH2AX in the nucleus. Anti-SLFN11 rabbit monoclonal antibody (Cell Signaling Technology, clone D8W1B) was detected by immunohistochemistry (IHC) using Bond Polymer Detection kit (Leica) and scanned in 20X widefield Aperio (Leica), and the distribution of staining intensity of tumor cell nuclei graded as 0, 1 + , 2 + or 3 + was converted into an H-score. […]

COc1cc2c3c(n(CCCNCCO)c(=O)c2cc1OC)-c1cc2c(cc1C3=O)OCO2 [LMP744]
Overall response rate ([1]; 35 patients): 3%
Patients with a partial response (one confirmed) ([1]; in vivo): Two
Patients with stable disease for ≥ 3 cycles ([1]; in vivo): 12
Cycles of treatment completed with SD ([1]; patient 10, low-grade appendiceal mucinous neoplasm): 31 cycles
Nuclear TOP1, change in the biopsy cohort ([2]; 6 patients at MTD, P = 0.1448): no significant changes
Nuclear TOP1 ([2]; patient 29, MTD, C1D2): neither biomarker changed with treatment
Nuclear TOP1 ([2]; patient 31, MTD, C1D2): decreased nearly to background levels
Decrease of nuclear TOP1 ([2]; patient 33, MTD, C1D2): 57%

— PMC12122562, “Phase 1 studies of the indenoisoquinolines LMP776 and LMP744 in patients with solid tumors and lymphomas” (Cancer Chemotherapy and Pharmacology, 2025)
